Literature values as cited in US6682694B2, “Uncomplexed cyclodextrin solutions for odor control on inanimate surfaces” (The Procter & Gamble Company, priority 1994, dated 2004).

Conditions: for water solubility: in water

Row | SMILES | water solubility | solubility in water
1 | [Na+].[O-][n+]1ccccc1[S-] [sodium pyrithione] | about 50% | 
2 | OCCOc1ccccc1 [2-phenoxyethanol] | about 2.67% | 
3 | OCCc1ccccc1 [2-phenylethanol] | about 2% | 
4 | ClC=CC[N+]12CN3CN(CN(C3)C1)C2.[Cl-] [Dowicil 200, 1-(3-Chlorallyl)-3,5,7-triaza-1-azoniaadamantane chloride] |  | freely soluble in water
5 | O=[N+]([O-])C1(Br)COCOC1 [Bronidox L, 5-bromo-5-nitro-1,3-dioxane] | about 0.46% | 

Second part, led by results:

Row | water solubility | SMILES | solubility in water
6 | more than 50% | CC1(C)C(=O)N(CO)C(=O)N1CO [DMDM hydantoin, 1,3-bis(hydroxymethyl)-5,5-dimethyl-2,4-imidazolidinedione] | 
7 | about 70% | [H]/N=C(\N/C(=N/[H])NCCCCCCNC(=N)NC(=N)Nc1ccc(Cl)cc1)Nc1ccc(Cl)cc1 [chlorhexidine digluconate, 1,1′-hexamethylene bis(5-(p-chlorophenyl)biguanide), reference compound] | 
8 | about 1.8% | [H]/N=C(\N/C(=N/[H])NCCCCCCNC(=N)NC(=N)Nc1ccc(Cl)cc1)Nc1ccc(Cl)cc1 [chlorhexidine diacetate, 1,1′-hexamethylene bis(5-(p-chlorophenyl)biguanide), reference compound] | 
9 | about 0.8% | CC(C)(O)C(Cl)(Cl)Cl [chlorobutanol, 1,1,1-Trichloro-2-methylpropan-2-ol, reference compound] | 
10 | about 25% | O=[N+]([O-])C(Br)(CO)CO [Bronopol, 2-bromo-2-nitropropane-1,3-diol] | 
11 | about 4% | OCc1ccccc1 [benzyl alcohol] | 
